Measured values taken from patent publication US20140235533A1, “DIHYDROFURAN DERIVATIVES AS INSECTICIDAL COMPOUNDS” (SYNGENTA PARTICIPATIONS AG, priority 2011, published 2014).

Key:
Type in all cases: in vivo
Diabrotica balteata = Diabrotica balteata (corn root worm) artificial diet MTP test; settings: 120 h, 200 ppm (concentration in well 18 ppm), L2 larvae, larval mortality and growth regulation after 5 days
Description: (§1) Diabrotica balteata (Corn Root Worm): A 24-well microtiter plate (MTP) with artificial diet was treated with test solutions at an application rate of 200 ppm (concentration in well 18 ppm) by pipetting. After drying, the MTPs were infested with L2 larvae (6-10 per well). After an incubation period of 5 days, samples were checked for larval mortality and growth regulation.

Plutella xylostella = Plutella xylostella (diamond back moth) artificial diet MTP test; settings: 144 h, 200 ppm (concentration in well 18 ppm), L2 larvae, larval mortality and growth regulation after 6 days
Description: as §1, with “Plutella xylostella (Diamond Back Moth):” for “Diabrotica balteata (Corn Root Worm): A”, “(7-12” for “(6-10”, “6” for “5”

Heliothis virescens = Heliothis virescens (tobacco budworm) egg test on artificial diet; settings: 96 h, 200 ppm (concentration in well 18 ppm), eggs 0-24 h old on artificial diet, egg mortality, larval mortality, growth regulation after 4 days
Description: Heliothis virescens (Tobacco Budworm):
Eggs (0-24 h old) were placed in 24-well microtiter plate on artificial diet and treated with test solutions at an application rate of 200 ppm (concentration in well 18 ppm) by pipetting. After an incubation period of 4 days, samples were checked for egg mortality, larval mortality, and growth regulation. The following compound gave at least 80% control of Heliothis virescens: A1, A2, A03, A05, A06, A07, A08, A09, A10, A11, A12, A13, A14, A15, A16, A17, A18, A19, A20, A21, A22, A25, A26, A27, A31, A32, A34, A37, A39, A40, A42, A44, A45, A46, A47, A48, A49, A50, A51, A52, A53, B1**.

Spodoptera littoralis = Spodoptera littoralis (Egyptian cotton leafworm) cotton leaf disc spray test; settings: foliar, 72 h, 200 ppm spray on cotton leaf discs, 5 L1 larvae, mortality, feeding behavior, growth regulation 3 days after treatment
Excerpt: Spodoptera littoralis (Egyptian Cotton Leafworm) Cotton leaf discs were placed on agar in a 24-well microtiter plate and sprayed with test solutions at an application rate of 200 ppm. After drying, the leaf discs were infested with 5 L1 larvae. The samples were checked for mortality, feeding behavior, and growth regulation 3 days after treatment (DAT).

In the case of `O=C(CCN1C(=O)c2ccccc2C1=O)NCc1ccc(C2=COC(c3cc(Cl)cc(Cl)c3)(C(F)(F)F)C2)cc1Cl` (stereo not drawn) [Compound A22, N-[[2-chloro-4-[2-(3,5-dichlorophenyl)-2-(trifluoromethyl)-3H-furan-4-yl]phenyl]methyl]-3-(1,3-dioxoisoindolin-2-yl)propanamide], the pest or weed control at 200 ppm (Diabrotica balteata) was ≥ 80%, the pest or weed control at 200 ppm (Plutella xylostella) was ≥ 80% and the pest or weed control at 200 ppm (Heliothis virescens) was ≥ 80%. The pest or weed control at 200 ppm (Spodoptera littoralis) was ≥ 80%.
`CSc1ccc(C(=O)NCc2ccc(C3=COC(c4cc(Cl)cc(Cl)c4)(C(F)(F)F)C3)cc2Cl)cc1` (stereo not drawn) [Compound A27, N-[[2-chloro-4-[2-(3,5-dichlorophenyl)-2-(trifluoromethyl)-3H-furan-4-yl]phenyl]methyl]-4-methylsulfanyl-benzamide] was tested, and the pest or weed control at 200 ppm (Diabrotica balteata) was ≥ 80% and the pest or weed control at 200 ppm (Heliothis virescens) was ≥ 80%.
With `CCSC(SCC)C(=O)NCc1ccc(C2=COC(c3cc(Cl)cc(Cl)c3)(C(F)(F)F)C2)cc1Cl` (stereo not drawn) [Compound A53, N-[[2-chloro-4-[2-(3,5-dichlorophenyl)-2-(trifluoromethyl)-3H-furan-4-yl]phenyl]methyl]-2,2-bis(ethylsulfanyl)acetamide] the pest or weed control at 200 ppm (Diabrotica balteata) was ≥ 80%, the pest or weed control at 200 ppm (Plutella xylostella) was ≥ 80% and the pest or weed control at 200 ppm (Heliothis virescens) was ≥ 80%. For the same compound, the pest or weed control at 200 ppm (Spodoptera littoralis) was ≥ 80%.
With `O=C(CCC(=O)c1ccccc1)NCc1ccc(C2=COC(c3cc(Cl)cc(Cl)c3)(C(F)(F)F)C2)cc1Cl` (stereo not drawn) [Compound A13, N-[[2-chloro-4-[2-(3,5-dichlorophenyl)-2-(trifluoromethyl)-3H-furan-4-yl]phenyl]methyl]-4-oxo-4-phenyl-butanamide] the pest or weed control at 200 ppm (Plutella xylostella) was ≥ 80%, the pest or weed control at 200 ppm (Heliothis virescens) was ≥ 80% and the pest or weed control at 200 ppm (Spodoptera littoralis) was ≥ 80%.
In the case of `CSC1(C(=O)NCc2ccc(C3=COC(c4cc(Cl)cc(Cl)c4)(C(F)(F)F)C3)cc2Cl)CC1` (stereo not drawn) [Compound A49, N-[[2-chloro-4-[2-(3,5-dichlorophenyl)-2-(trifluoromethyl)-3H-furan-4-yl]phenyl]methyl]-1-methylsulfanyl-cyclopropanecarboxamide], the pest or weed control at 200 ppm (Plutella xylostella) was ≥ 80%, the pest or weed control at 200 ppm (Heliothis virescens) was ≥ 80% and the pest or weed control at 200 ppm (Spodoptera littoralis) was ≥ 80%.
`O=C(NCc1ccc(C2=COC(c3cc(Cl)cc(Cl)c3)(C(F)(F)F)C2)cc1Cl)c1ncoc1-c1ccccc1` (stereo not drawn) [Compound A38, N-[[2-chloro-4-[2-(3,5-dichlorophenyl)-2-(trifluoromethyl)-3H-furan-4-yl]phenyl]methyl]-5-phenyl-oxazole-4-carboxamide] was tested, and the pest or weed control at 200 ppm (Spodoptera littoralis) was ≥ 80%.
For `O=C(CSc1nc2ccccc2[nH]1)NCc1ccc(C2=COC(c3cc(Cl)cc(Cl)c3)(C(F)(F)F)C2)cc1Cl` (stereo not drawn) [Compound A12, 2-(1H-benzimidazol-2-ylsulfanyl)-N-[[2-chloro-4-[2-(3,5-dichlorophenyl)-2-(trifluoromethyl)-3H-furan-4-yl]phenyl]methyl]acetamide], the pest or weed control at 200 ppm (Plutella xylostella) was ≥ 80% and the pest or weed control at 200 ppm (Heliothis virescens) was ≥ 80%.
For `O=C(CCc1ccccc1)NCc1ccc(C2=COC(c3cc(Cl)cc(Cl)c3)(C(F)(F)F)C2)cc1Cl` (stereo not drawn) [Compound A09, N-[[2-chloro-4-[2-(3,5-dichlorophenyl)-2-(trifluoromethyl)-3H-furan-4-yl]phenyl]methyl]-3-phenyl-propanamide], the pest or weed control at 200 ppm (Diabrotica balteata) was ≥ 80%, the pest or weed control at 200 ppm (Plutella xylostella) was ≥ 80% and the pest or weed control at 200 ppm (Heliothis virescens) was ≥ 80%.
For `O=C(/C=C/c1ccco1)NCc1ccc(C2=COC(c3cc(Cl)cc(Cl)c3)(C(F)(F)F)C2)cc1Cl` (stereo not drawn) [Compound A10, (E)-N-[[2-chloro-4-[2-(3,5-dichlorophenyl)-2-(trifluoromethyl)-3H-furan-4-yl]phenyl]methyl]-3-(2-furyl)prop-2-enamide], the pest or weed control at 200 ppm (Plutella xylostella) was ≥ 80% and the pest or weed control at 200 ppm (Heliothis virescens) was ≥ 80%.
In the case of `O=C(NCc1ccc(C2=COC(c3cc(Cl)cc(Cl)c3)(C(F)(F)F)C2)cc1Cl)c1c[nH]cn1` (stereo not drawn) [Compound A31, N-[[2-chloro-4-[2-(3,5-dichlorophenyl)-2-(trifluoromethyl)-3H-furan-4-yl]phenyl]methyl]-1H-imidazole-4-carboxamide], the pest or weed control at 200 ppm (Plutella xylostella) was ≥ 80%, the pest or weed control at 200 ppm (Heliothis virescens) was ≥ 80% and the pest or weed control at 200 ppm (Spodoptera littoralis) was ≥ 80%.
